The text below walks through data of US12661410B2, “Compounds for targeted degradation of RET” (C4 Therapeutics, Inc., priority 2020, dated 2026).

Where a chain is given by its changes, count along the chain named. Like-named read-outs stand apart in the source and are kept apart here.

One experiment addresses T1, RET(KD: 658-1114 G810R) (Homo sapiens, UniProt P07949, G810R).
T1 construct: 658-1114; expressed in transfected cells; host or cells: 293T.165 (293T cells, generated in-house)
T1 sequence (P07949 658-1114 G810R): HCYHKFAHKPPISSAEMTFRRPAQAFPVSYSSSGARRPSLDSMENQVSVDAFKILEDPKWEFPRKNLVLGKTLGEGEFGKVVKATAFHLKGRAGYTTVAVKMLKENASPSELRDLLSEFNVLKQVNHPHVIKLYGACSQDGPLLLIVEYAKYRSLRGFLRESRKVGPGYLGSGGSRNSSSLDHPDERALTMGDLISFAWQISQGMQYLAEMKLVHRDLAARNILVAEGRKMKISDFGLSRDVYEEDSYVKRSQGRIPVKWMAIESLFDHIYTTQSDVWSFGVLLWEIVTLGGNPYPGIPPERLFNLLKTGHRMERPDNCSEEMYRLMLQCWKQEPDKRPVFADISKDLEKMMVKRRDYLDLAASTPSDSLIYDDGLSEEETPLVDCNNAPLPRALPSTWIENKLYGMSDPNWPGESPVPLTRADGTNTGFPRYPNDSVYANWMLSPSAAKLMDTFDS
The experiment can be described thus: HiBiT-Degradation, RET G810R degradation assay (Nano-Glo HiBiT Lytic), 293T.165 cells. In kind it is cell-based. To be noted: for Emax / DC50: 6.0 hours; for DC50: read-out: 293T.165 RET(KD: 658-1114 G810R) 6.0 hours (DC50). The method, boiled down: (§1)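 Degradation after 6 h compound exposure (top 10 μM, 11 half-log points, duplicates) measured by Nano-Glo HiBiT lytic luminescence. Cells: 293T.144 carrying wild-type and 293T.165 carrying G810R HiBiT-RET kinase domain; curves yield DC50 and Emax.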
On the technique in general: HiBiT is a short tag that completes a luciferase, so light tracks the accessible tagged protein.

A further experiment has as its target T2, RET (658-1114) (Homo sapiens, UniProt P07949).
T2 construct: 658-1114; expressed in transfected cells; host or cells: 293T.144 (293T cells, generated in-house)
T2 sequence (P07949 658-1114): T1 sequence (P07949 658-1114 G810R) with R153G
The experiment can be described thus: HiBiT-Degradation, RET wild-type degradation assay (Nano-Glo HiBiT Lytic), 293T.144 cells. In kind it is cell-based. To be noted: for DC50 / Emax: 6.0 hours. The method in brief: as §1

The mark [1] stands for this setting: % remaining protein, read-out: 293T.165 RET(KD: 658-1114 G810R) 6.0 hours (Emax).
Where [2] appears, read: half-maximal degradation concentration.
Setting [3] is: % remaining protein, read-out: 293T.144 RET (658-1114) 6.0 hours (Emax).
The mark [4] stands for this setting: half-maximal degradation concentration, read-out: 293T.144 RET (658-1114) 6.0 hours (DC50).

With `N#Cc1cnn2cc(-c3cnn(C4CCN(C(=O)CN5CCC(c6ccc(NC7CCC(=O)NC7=O)cc6F)CC5)CC4)c3)cc(-c3ccc(N4CCC(Nc5ccccc5)CC4)nc3)c12` (stereo not shown) [Compound 46, 4-[6-(4-anilino-1-piperidyl)-3-pyridyl]-6-[1-[1-[2-[4-[4-[(2,6-dioxo-3-piperidyl)amino]-2-fluoro-phenyl]-1-piperidyl]acetyl]-4-piperidyl]pyrazol-4-yl]pyrazolo[1,5-a]pyridine-3-carbonitrile], the Emax at RET(KD: 658-1114 G810R) (setting [1]) is less than 50%; on RET (658-1114) (HiBiT-Degradation, read-out: 293T.144 RET (658-1114) 6.0 hours (Emax)) it was less than 30%. The DC50 is less than 100 nM on RET(KD: 658-1114 G810R) (setting [2]); less than 100 nM on RET(KD: 658-1114 G810R) (HiBiT-Degradation); less than 50 nM on RET (658-1114) (HiBiT-Degradation, read-out: 293T.144 RET (658-1114) 6.0 hours (DC50)). At RET(KD: 658-1114 G810R) (HiBiT-Degradation), the “293T.165 RET(KD: 658-1114 G810R) 6.0 hours (Emax)” value is given as “+++ (<50% = +++)”. For the same compound, the “293T.165 RET(KD: 658-1114 G810R) 6.0 hours (IP) [nM]” value on RET(KD: 658-1114 G810R) (HiBiT-Degradation) is “++++ (< 50 nM = ++++)”. In addition, the “293T.144 RET (658-1114) 6.0 hours (IP) [nM]” value at RET (658-1114) (HiBiT-Degradation) is listed as “++++ (< 50 nM = ++++)”.

Regarding `COc1cc(N2CCN([C@H]3CC[C@H](n4cc(-c5cn6ncc(C#N)c6c(-c6ccc(N7CC8COCC(C7)N8C(=O)OC(C)(C)C)nc6)n5)cn4)CC3)CC2)c(F)cc1NC1CCC(=O)NC1=O` (relative stereo) [Compound 163, tert-butyl 7-[5-[3-cyano-6-[1-[4-[4-[4-[(2,6-dioxo-3-piperidyl)amino]-2-fluoro-5-methoxy-phenyl]piperazin-1-yl]cyclohexyl]pyrazol-4-yl]pyrazolo[1,5-a]pyrazin-4-yl]-2-pyridyl]-3-oxa-7,9-diazabicyclo[3.3.1]nonane-9-carboxylate], at RET(KD: 658-1114 G810R), the “293T.165 RET(KD: 658-1114 G810R) 6.0 hours (IP) [nM]” value is “++++ (<50 nM = ++++)”. The Emax on RET(KD: 658-1114 G810R) (setting [1]) and on RET (658-1114) (setting [3]) was less than 30% in each case. Also, the DC50 is less than 100 nM on RET(KD: 658-1114 G810R) (setting [2]) and less than 50 nM on RET (658-1114) (setting [4]). Moreover, the “293T.144 RET (658-1114) 6.0 hours (IP) [nM]” value on RET (658-1114) was “++++ (<50 nM = ++++)”.

For the compound `N#Cc1cnn2cc(-c3cnn(C4CCC(N5CCN(c6ccc(NC7CCC(=O)NC7=O)cc6F)CC5)CC4)c3)nc(-c3ccc(N4C[C@H]5COC[C@@H](C4)N5CC4CCC(F)(F)CC4)nc3)c12` (single isomer, unassigned) [Compound 150], the “293T.165 RET(KD: 658-1114 G810R) 6.0 hours (IP) [nM]” value on RET(KD: 658-1114 G810R) is “++++ (<50 nM = ++++)”. The Emax on RET(KD: 658-1114 G810R) (setting [1]) and on RET (658-1114) (setting [3]) was less than 30% each time. Besides, on RET (658-1114), the “293T.144 RET (658-1114) 6.0 hours (IP) [nM]” value was “++++ (<50 nM = ++++)”. Also, the DC50 at RET (658-1114) (setting [4]) was less than 50 nM.

In the case of `CCC1(C(=O)NC(C)C)CCN(c2ccc(-c3nc(-c4cnn(C5CCC(CCN6CCC(c7ccc(NC8CCC(=O)NC8=O)cc7F)CC6)CC5)c4)cn4ncc(C#N)c34)cn2)CC1` (stereo not shown) [Compound 181, 1-(5-(3-Cyano-6-(1-((1r, 4r)-4-(2-(4-(4-((2,6-dioxopiperidin-3-yl)amino)-2-fluorophenyl)piperidin-1-yl)ethyl)cyclohexyl)-1H-pyrazol-4-yl)pyrazolo[1,5-a]pyrazin-4-yl)pyridin-2-yl)-4-ethyl-N-isopropylpiperidine-4-carboxamide], at RET(KD: 658-1114 G810R), the “293T.165 RET(KD: 658-1114 G810R) 6.0 hours (IP) [nM]” value is reported as “++++ (<50 nM = ++++)”. Also, the “293T.165 RET(KD: 658-1114 G810R) 6.0 hours (Emax)” value at RET(KD: 658-1114 G810R) (% remaining protein) is listed as “++++ (<30% = ++++)”. At RET(KD: 658-1114 G810R) (setting [2]), the “293T.165 RET(KD: 658-1114 G810R) 6.0 hours (DC50) [nM]” value is listed as “++++ (<50 nM = ++++)”. In addition, at RET (658-1114), the “293T.144 RET (658-1114) 6.0 hours (IP) [nM]” value is given as “++++ (<50 nM = ++++)”. Moreover, the DC50 on RET (658-1114) (setting [4]) is less than 50 nM. Also, at RET (658-1114) (% remaining protein), the “293T.144 RET (658-1114) 6.0 hours (Emax)” value was “++++ (<30% = ++++)”.

As for `CCC1(C(=O)NC(C)C)CCN(c2ccc(-c3nc(-c4cnn(C5CCN(C(=O)CC6(O)CCN(c7ccc(NC8CCC(=O)NC8=O)cc7C(F)F)CC6)CC5)c4)cn4ncc(C#N)c34)cn2)CC1` (stereo not shown) [Compound 96, 1-[5-[3-cyano-6-[1-[1-[2-[1-[2-(difluoromethyl)-4-[(2,6-dioxo-3-piperidyl)amino]phenyl]-4-hydroxy-4-piperidyl]acetyl]-4-piperidyl]pyrazol-4-yl]pyrazolo[1,5-a]pyrazin-4-yl]-2-pyridyl]-4-ethyl-N-isopropyl-piperidine-4-carboxamide], the “293T.165 RET(KD: 658-1114 G810R) 6.0 hours (IP) [nM]” value at RET(KD: 658-1114 G810R) is “+++ (<100 nM = +++)”. Besides, the Emax on RET(KD: 658-1114 G810R) (setting [1]) was less than 50%; on RET (658-1114) (setting [3]), less than 30%. The DC50 at RET(KD: 658-1114 G810R) (setting [2]) was less than 100 nM; at RET (658-1114) (setting [4]), less than 50 nM. The “293T.144 RET (658-1114) 6.0 hours (IP) [nM]” value on RET (658-1114) was “++++ (<50 nM = ++++)”.

`CCC1(C(=O)NC(C)C)CCN(c2ccc(-c3cc(-c4cnn([C@H]5CC[C@H](N6CCC(c7ccc(NC8CCC(=O)NC8=O)cc7F)CC6)CC5)c4)cn4ncc(C#N)c34)cn2)CC1` (single isomer, unassigned) [Compound 87, 1-(5-(3-cyano-6-(1-((1r, 4r)-4-(4-(4-((2,6-dioxopiperidin-3-yl)amino)-2-fluorophenyl)piperidin-1-yl)cyclohexyl)-1H-pyrazol-4-yl)pyrazolo[1,5-a]pyridin-4-yl)pyridin-2-yl)-4-ethyl-N-isopropylpiperidine-4-carboxamide]: the Emax is less than 30% at RET(KD: 658-1114 G810R) (setting [1]); less than 30% at RET(KD: 658-1114 G810R) (RET G810R, read-out: HiBiT-Degradation 293T.165 RET(KD: 658-1114 G810R) 6.0 hours (Emax)); less than 30% at RET (658-1114) (RET wild-type, read-out: HiBiT-Degradation 293T.144 RET (658-1114) 6.0 hours (Emax)). In addition, the “HiBiT-Degradation 293T.165 RET(KD: 658-1114 G810R) 6.0 hours (IP) [nM]” value on RET(KD: 658-1114 G810R) (RET G810R) is listed as “++++ (< 50 nM = ++++)”. The “HiBiT-Degradation 293T.144 RET (658-1114) 6.0 hours (IP) [nM]” value at RET (658-1114) (RET wild-type) is recorded as “++++ (< 50 nM = ++++)”. The DC50 at RET (658-1114) (RET wild-type, read-out: HiBiT-Degradation 293T.144 RET (658-1114) 6.0 hours (DC50)) is less than 50 nM.

On to `N#Cc1cnn2cc(-c3cnn(C4CCN(C(=O)CC5(O)CCN(c6ccc(NC7CCC(=O)NC7=O)cc6F)CC5)CC4)c3)cc(-c3ccc(N4CCC(c5cccc(O)c5)CC4)nc3)c12` (stereo not shown) [Compound 198, 6-[1-[1-[2-[1-[4-[(2,6-dioxo-3-piperidyl)amino]-2-fluoro-phenyl]-4-hydroxy-4-piperidyl]acetyl]-4-piperidyl]pyrazol-4-yl]-4-[6-[4-(3-hydroxyphenyl)-1-piperidyl]-3-pyridyl]pyrazolo[1,5-a]pyridine-3-carbonitrile], for which the “293T.165 RET(KD: 658-1114 G810R) 6.0 hours (IP) [nM]” value at RET(KD: 658-1114 G810R) is listed as “++++ (<50 nM = ++++)”. Moreover, the Emax on RET(KD: 658-1114 G810R) (setting [1]) and at RET (658-1114) (setting [3]) was less than 30% in each case. Further, the DC50 at RET(KD: 658-1114 G810R) (setting [2]) and at RET (658-1114) (setting [4]) was less than 50 nM throughout. Besides, the “293T.144 RET (658-1114) 6.0 hours (IP) [nM]” value on RET (658-1114) is “++++ (<50 nM = ++++)”.

On to `CCC1(C(=O)NC(C)C)CCN(c2ccc(-c3nc(-c4cnn(C5CCN(C(=O)CC6(O)CCN(c7cc(OC)c(NC8CCC(=O)NC8=O)cc7Cl)CC6)CC5)c4)cn4ncc(C#N)c34)cn2)CC1` (stereo not shown) [Compound 90, 1-[5-[6-[1-[1-[2-[1-[2-chloro-4-[(2,6-dioxo-3-piperidyl)amino]-5-methoxy-phenyl]-4-hydroxy-4-piperidyl]acetyl]-4-piperidyl]pyrazol-4-yl]-3-cyano-pyrazolo[1,5-a]pyrazin-4-yl]-2-pyridyl]-4-ethyl-N-isopropyl-piperidine-4-carboxamide], for which, at RET(KD: 658-1114 G810R), the “293T.165 RET(KD: 658-1114 G810R) 6.0 hours (IP) [nM]” value is given as “++++ (<50 nM = ++++)”. Moreover, the Emax at RET(KD: 658-1114 G810R) (setting [1]) and on RET (658-1114) (setting [3]) was less than 30% throughout. Also, the DC50 at RET(KD: 658-1114 G810R) (setting [2]) and at RET (658-1114) (setting [4]) was less than 50 nM each time. Moreover, the “293T.144 RET (658-1114) 6.0 hours (IP) [nM]” value on RET (658-1114) is given as “++++ (<50 nM = ++++)”.

In general, Emax refers to the size of the effect at its maximum, as opposed to the concentration needed. A word on the DC50: it is the concentration at which degradation of the target reaches its halfway point.
